# Laboratory results from PMC6525071 (Cell chemical biology, 2019).
# Experiments:
# cells = test: Cell survival test of free fatty acids in the presence or absence of IKE; format: cell-based; details: for effect of free fatty acid on ferroptosis: 10 μM, in the presence of IKE; for toxicity of free fatty acid to cells: high concentration (100 μM)
# DLBCL cell lines = test: Rescue of IKE-induced cell death by co-treatment with ferroptosis inhibitors; format: cell-based
# SUDHL-6 cells [1] = test: Lipid ROS by flow cytometry with C11-BODIPY; format: cell-based
# SUDHL-6 cells [2] = test: RT-qPCR gene expression in cells; format: cell-based; details: for effect of co-treatment on IKE-induced upregulation of lipid metabolism genes: 10 μM co-treatment with 500 nM IKE
# SUDHL6 cells [3] = test: Untargeted lipidomics; format: cell-based; details: for effect of co-treatment on IKE-induced lipidomic changes: 10 μM co-treatment with 500 nM IKE
# SUDHL6 cells [4] = test: IKE PEG-PLGA cellular activity, CellTiter-Glo viability
# [5] = ref Larraufie et al., 2015; cited from earlier work
# SUDHL-6 cells [6] = test: Reduced glutathione measurement in cells; format: cell-based
# GSH = details: ref Narang et al., 2007; Lo et al., 2010; cited from earlier work
# LY8 = test: DLBCL cell line sensitivity to IKE, Cell Titer-Glo viability; format: cell-based; details: read-out: cell line sensitivity class (IC50), LY8, IKE 24 hours
# HBL1 = test: as above; format: cell-based; details: read-out: cell line sensitivity class (IC50), HBL1, IKE 24 hours
# RIVA = test: as above; format: cell-based; details: read-out: cell line sensitivity class (IC50), IKE 24 hours
# U937 = test: as above; format: cell-based; details: read-out: cell line sensitivity class (IC50), U937, IKE 24 hours
# LY7 = test: as above; format: cell-based; details: read-out: cell line sensitivity class (IC50), LY7, IKE 24 hours
# SUDHL-6 cells [7] = test: Immunofluorescence of dihydropyridine-MDA-lysine adduct in cells; format: cell-based; details: IKE treatment
# [8] = Pharmacokinetic analysis in mice with three administration routes; format: in vivo, mouse; details: single dose IP, IV, PO, NOD/SCID mice, 5% DMSO in HBSS at pH 4
# [9] = Pharmacokinetic analysis in NCG mice bearing SUDHL6 xenografts; format: in vivo, mouse
# [10] = tested on: SUDHL6 xenograft tumor tissue; test: GSH in tumor tissue after a single IKE dose; format: in vivo, mouse; details: single dose 50 mg/kg IKE IP, starting at 4 hours
# [11] = tested on: SUDHL6 xenograft tumor tissue; test: RT-qPCR in tumor tissue after a single IKE dose; format: in vivo, mouse; details: single dose 50 mg/kg IKE, starting at 3 h
# [12] = Mouse weight during efficacy study; format: in vivo; details: starting from day 9
# [13] = tested on: SUDHL6 xenograft tumor tissue; test: Immunofluorescence on frozen tumor sections from efficacy study; format: in vivo, mouse
# [14] = tested on: SUDHL6 xenograft tumor tissue; test: TBARS assay on tumor tissue from efficacy study; format: in vivo, mouse
# caspase-3 = test: Caspase-3 western blot on tumor tissue; format: in vivo, mouse; details: upon IKE treatment, efficacy study
# cell lines = details: ref Larraufie et al., 2015, cited from earlier work
# [15] = 10 μM fer-1 with 500 nM IKE, 6 hours, SUDHL6 cells
# [16] = 10 μM fer-1 co-treatment with 500 nM IKE
# [17] = IP injection, SUDHL6 NCG xenograft mice
# [18] = single dose 50 mg/kg IP, SUDHL6-xenograft-bearing NCG mice
compound,measurement,setting,value
CCCCCCCC/C=C\CCCCCCCC(=O)O [oleic acid],effect of free fatty acid on ferroptosis,cells,protected against ferroptosis
CCCCCC/C=C\CCCCCCCC(=O)O [palmitoleic acid],effect of free fatty acid on ferroptosis,cells,protected against ferroptosis
CC/C=C\C/C=C\C/C=C\C/C=C\C/C=C\CCCC(=O)O [eicosapentaenoic acid],toxicity of free fatty acid to cells,cells,toxic to cells
CCCCC/C=C\C/C=C\C/C=C\CCCCC(=O)O [γ-linolenic acid],toxicity of free fatty acid to cells,cells,toxic to cells
"CCOC(=O)c1ccc(NC2CCCCC2)c(N)c1 [fer-1, ferrostatin-1]",effect of fer-1 co-treatment on cell death induced by IKE,DLBCL cell lines; DLBCL cell lines,rescued cell death
same,effect of co-treatment on IKE-induced lipid ROS signal,SUDHL-6 cells [1]; 10 μM fer-1 co-treatment,inhibited this signal
same,effect of co-treatment on IKE-induced upregulation of lipid metabolism genes,SUDHL-6 cells [2]; SUDHL6 cells,partially reversed
same,effect of co-treatment on IKE-induced CHAC1 upregulation,SUDHL-6 cells [2]; [15],did not inhibit CHAC1 upregulation
same,effect of co-treatment on IKE-induced PTGS2 upregulation,SUDHL-6 cells [2]; [15],inhibited PTGS2 upregulation
same,MAG lipids,SUDHL6 cells [3]; [16],decreased
same,TAG lipids,SUDHL6 cells [3]; [16],significantly increased
same,effect of fer-1 co-treatment on cell death induced by IKE and IKE PEG-PLGA NPs,SUDHL6 cells [4],rescued cell death
"CCOc1ccccc1-n1c(C(C)N2CCN(C(=O)COc3ccc(Cl)cc3)CC2)nc2ccccc2c1=O (stereo not drawn) [erastin, reference compound]",metabolic stability,[5],metabolically labile
"OCCS [β-ME, β-mercaptoethanol]",effect of co-treatment on IKE-induced GSH depletion,"SUDHL-6 cells [6]; 10 μM β-ME co-treatment, SUDHL6 cells, 24 hours",reversed
same,effect of co-treatment on IKE-induced upregulation of lipid metabolism genes,SUDHL-6 cells [2]; SUDHL6 cells,partially reversed
same,"effect of co-treatment on IKE-induced upregulation of SLC7A11, PTGS2 and CHAC1","SUDHL-6 cells [2]; 10 μM β-ME with 500 nM IKE, 6 hours, SUDHL6 cells",prevented
same,effect of co-treatment on IKE-induced lipidomic changes,SUDHL6 cells [3],reversed these effects
CCCCC/C=C\C/C=C\C/C=C\C/C=C\CCCC(=O)O [arachidonic acid],toxicity of free fatty acid to cells,cells,toxic to cells
"CC(=O)N(O)CCCCCNC(=O)CCC(=O)N(O)CCCCCNC(=O)CCC(=O)N(O)CCCCCN [DFO, deferoxamine]",effect of DFO co-treatment on IKE-induced cell death,DLBCL cell lines; in culture,inhibited IKE-induced cell death
same,effect of co-treatment on IKE-induced lipidomic changes,SUDHL6 cells [3],only partially eliminated lipidomic changes
O=C(O)c1cc(/N=N/c2ccc(S(=O)(=O)Nc3ccccn3)cc2)ccc1O [sulfasalazine],IC50 for GSH depletion,GSH,millimolar range
"CC(C)Oc1ccc(C(=O)Cn2ccnc2)cc1-n1c(CN2CCN(C(=O)COc3ccc(Cl)cc3)CC2)nc2ccccc2c1=O [IKE, imidazole ketone erastin]",IC50,LY8,< 100 nM
same,IC50,HBL1,100 to 10000 nM
same,IC50,RIVA,100 to 10000 nM
same,IC50,U937,> 10000 nM
same,IC50,LY7,> 10000 nM
same,cellular level of reduced glutathione (GSH),"SUDHL-6 cells [6]; SUDHL6 cells, different concentrations of IKE, 24 hours",dose-dependent GSH depletion
same,IC50,"SUDHL-6 cells [6]; read-out: IC50 of GSH depletion, SUDHL-6 cells, 24 h",34 nM
same,lipid ROS (C11-BODIPY),SUDHL-6 cells [1]; different concentrations of IKE,dose-dependent increase
same,dihydropyridine-MDA-lysine-adduct abundance,SUDHL-6 cells [7],increased
same,"GPX4, CBS and ACSL4 expression","SUDHL-6 cells [2]; IKE treatment, data not shown",not upregulated
same,"SLC7A11, PTGS2 and CHAC1 expression","SUDHL-6 cells [2]; SUDHL-6 cells, 500 nM IKE",significantly increased
same,comparison of dosage routes by IKE concentration over eight hours,[8],IP to be the most effective and practical means
same,T1/2 plasma,[9]; [17],1.83 h
same,T1/2 tumor,[9]; [17],3.50 h
same,highest plasma concentration,[9]; [18],5.2 µg/mL
same,highest tumor accumulation,[9]; [18],2.5 µg/mL
same,time of highest plasma concentration,[9]; [18],1.35 h
same,time of highest tumor accumulation,[9]; [18],3.30 h
same,GSH depletion in tumor tissue,[10],over 50%
same,CHAC1 mRNA upregulation in tumor,[11],2 fold
same,PTGS2 mRNA upregulation in tumor,[11],3–5 fold
same,SLC7A11 mRNA upregulation in tumor,[11],3–5 fold
same,mouse weight,[12]; IKE 23 mg/kg daily,weight loss
same,mouse weight,[12]; IKE 40 mg/kg daily,weight loss
same,increase in 8-OH-dG intensity in tumor sections,[13]; IKE 23 mg/kg daily for 14 days,1.8 fold
same,increase in COX-2 intensity in tumor sections,[13]; IKE 23 mg/kg daily for 14 days,2.0 fold
same,increase in MDA intensity in tumor sections,[13]; IKE 23 mg/kg daily for 14 days,1.8 fold
same,increase in 8-OH-dG intensity in tumor sections,[13]; IKE 40 mg/kg daily for 14 days,2.2 fold
same,increase in COX-2 intensity in tumor sections,[13]; IKE 40 mg/kg daily for 14 days,2.8 fold
same,increase in MDA intensity in tumor sections,[13]; IKE 40 mg/kg daily for 14 days,2.0 fold
same,"MDA increase (TBARS, MDA-TBA adduct fluorescence)",[14]; IKE 23 mg/kg,1.4 fold
same,"MDA increase (TBARS, MDA-TBA adduct fluorescence)",[14]; IKE 40 mg/kg,1.8 fold
same,caspase-3 activity in tumor tissues,caspase-3,no increase in caspase-3 activity
same,potency improvement comparing to erastin,cell lines; in some cell lines,> 100 x
same,potency,cell lines,nanomolar
same,metabolic stability,[5],high
